{"source": "patent US9879278B2", "about": "“Non-viral episomal suicide construct” (WAKE FOREST UNIVERSITY HEALTH SCIENCES, priority 2012, dated 2018)", "key": {"[1]": {"system": "tumors from NCCIT (pSuicide) cells", "test": "In vivo ganciclovir treatment of tumors", "parameters": "species or system SCID mice", "experimental": "(§1) Trypsinized cells washed in PBS were resuspended in ice-cold PBS containing 30% BD Matrigel (BD Biosciences), drawn into an ice-cold 1-mL syringe, and kept on ice for subcutaneous injection into 8-˜12-week-old female immunodeficient SCID mice (Charles River Laboratories, Wilmington, Mass.) as previously described (Prokhorova et al., 2009, Stem Cells Dev 2009; 18:47-54). For undifferentiated NCCIT and NCCIT (pSuicide) cells, 1.5×10^6 cells in 100 μl volume were injected for each mouse. For differentiated NCCIT (pSuicide) cells, 3×10^6 cells were injected. When tumors reached about 8 mm in size, ganciclovir (50 mg/kg body weight) was delivered intraperitoneally daily for 2-3 weeks. Each tumor was regarded as a prolate spheroid and the greatest longitudinal diameter (L) and greatest transverse diameter (B) were monitored with a caliper every 2 days by the same person. The two dimensions were to lie perpendicular to each other in a plane tangential to the body wall. Tumor size was estimated from the formula V=½(L×B^2) as previously described (Euhus et al., 1986, J Surg Oncol 31:229-34). The size of tumors formed by NCCIT and NCCIT (pSuicide) cells was compared by analysis of variation (ANOVA), setting as 1 the volume on the day ganciclovir was first delivered."}, "[2]": {"system": "tumors from NCCIT cells", "test": "In vivo ganciclovir treatment of tumors", "parameters": "species or system SCID mice", "experimental": "as §1"}, "[3]": {"system": "NCCIT (pSuicide) cells", "test": "Cell survival under ganciclovir treatment", "type": "cell-based, human", "experimental": "(§2) NCCIT and HeLa cells with and without pSuicide episomal DNA were treated with and without 2 μmol/L ganciclovir. Cell numbers and morphology were compared 7 days after treatment."}, "[4]": {"system": "NCCIT (pSuicide) cells", "test": "Flow cytometry of OCT4-expressing cells after RA and ganciclovir", "type": "cell-based, human", "experimental": "(§3) One aliquot of cells was maintained in differentiation medium containing 2 μmol/L ganciclovir for 7 days (for in vitro immuno-analysis) or 14 days (for in vivo tumor formation). As a negative control, counterpart cells were grown in differentiation medium containing 0.1% DMSO in which ganciclovir is dissolved.\n(§4) Cells were trypsinized and about 5×10^5 cells were fixed in 2% paraformaldehyde for 10 min at room temperature. Cells were pelleted and permeabilized by resuspension with vigorous vortexing in 500 μl iced-cold methanol and incubated at 4° C. for at least 10 min. After 3 washes with staining buffer (PBS with 1% BSA), the cells were resuspended in 100 μl OCT4 antibody (Santa Cruz Biotechnology), diluted to 1:100 with staining buffer, and incubated for 30 min at 4° C. The cells were washed 3 times with staining buffer and incubated in 1:300 diluted Cy5-conjugated goat anti-mouse Fab for 30 min at 4° C. The cells were assessed for OCT4 expression using a BD FACSCalibur cytometer (BD Biosciences) with CellQuest software."}, "[5]": {"system": "NCCIT cells", "test": "Flow cytometry of OCT4-expressing cells after RA and ganciclovir", "type": "cell-based, human", "experimental": "as §3, §4"}, "[6]": {"system": "HeLa (pSuicide) cells", "test": "Cell survival under ganciclovir treatment", "type": "cell-based", "experimental": "as §2"}, "[7]": {"system": "RA-differentiated NCCIT(pSuicide) cells", "test": "Tumor development from RA-differentiated NCCIT(pSuicide) cells with or without in vitro ganciclovir selection", "type": "in vivo, SCID mice", "experimental": "as §3\nTrypsinized cells washed in PBS were resuspended in ice-cold PBS containing 30% BD Matrigel (BD Biosciences), drawn into an ice-cold 1-mL syringe, and kept on ice for subcutaneous injection into 8-˜12-week-old female immunodeficient SCID mice (Charles River Laboratories, Wilmington, Mass.) as previously described (Prokhorova et al., 2009, Stem Cells Dev 2009; 18:47-54). For undifferentiated NCCIT and NCCIT (pSuicide) cells, 1.5×10^6 cells in 100 μl volume were injected for each mouse. For differentiated NCCIT (pSuicide) cells, 3×10^6 cells were injected.\nWhen tumors reached about 8 mm in size, ganciclovir (50 mg/kg body weight) was delivered intraperitoneally daily for 2-3 weeks. Each tumor was regarded as a prolate spheroid and the greatest longitudinal diameter (L) and greatest transverse diameter (B) were monitored with a caliper every 2 days by the same person. The two dimensions were to lie perpendicular to each other in a plane tangential to the body wall. Tumor size was estimated from the formula V=½(L×B^2) as previously described (Euhus et al., 1986, J Surg Oncol 31:229-34). The size of tumors formed by NCCIT and NCCIT (pSuicide) cells was compared by analysis of variation (ANOVA), setting as 1 the volume on the day ganciclovir was first delivered."}, "[8]": {"system": "NCCIT (pSuicide) cells", "test": "Western blotting of OCT4A after RA-induced differentiation and ganciclovir", "type": "cell-based, human", "details": "RA-induced NCCIT (pSuicide) cells treated with ganciclovir", "experimental": "as §3\n(§5) Cells were lysed in RIPA buffer with protease inhibitors (0.5 mmol/L PMSF and 1×Complete Protease Inhibitor Cocktail from Roche) for SDS-PAGE and Western blotting analyses. Monoclonal anti-β-actin antibody was from Sigma and used at 1:5000 (St Louis, Mo.). Rabbit anti-HSV thymidine kinase antiserum was obtained from Dr. William Summers of Yale University (1:5000); anti-OCT4A antibody was from Santa Cruz Biotechnology (Santa Cruz, Calif.) and used at 1:1000. Horseradish peroxidase (HRP)-conjugated secondary antibodies (1:1000) were purchased from Pierce (Rockford, Ill.). Chemiluminescent reagents from Pierce were used to visualize the protein signals on an LAS-3000 imaging system (Fujifilm). The Integrated Density function (Image J software) was used to quantify the expression of individual proteins after normalized by β-actin."}, "[9]": {"system": "NCCIT cells", "test": "Western blotting of OCT4A after RA-induced differentiation and ganciclovir", "type": "cell-based, human", "details": "ganciclovir added to RA-induced NCCIT cells", "experimental": "as §3, §5"}, "[10]": {"system": "NCCIT cells", "test": "OCT4 immunofluorescence of RA-differentiated cells with ganciclovir"}, "[11]": {"system": "NCCIT (pSuicide) cells", "test": "OCT4 immunofluorescence of RA-differentiated cells with ganciclovir", "type": "cell-based, human", "experimental": "as §3\nBriefly, differentiated NCCIT cells growing on chamber slides were fixed in 4% PFA for 15 min at room temperature and permeabilized in 0.2% Triton X-100/PBS for 10 min. After blocking with 10% horse serum, cells were incubated with 3%0/horse serum diluted (1:50) OCT4 antibody (Santa Cruz Biotechnology) for 1 h at room temperature, followed by three washes in PBS-T (0.1% Tween 20 in phosphate-buffered saline). […] Images were captured under a fluorescent microscope."}, "[12]": {"details": "2 μmol/L ganciclovir for 7 days"}, "[13]": {"details": "3 × 10^6 cells/mouse, SCID mice"}}, "note": "“And” between values parts separate entries of the source, which are not always exact repeats. Identical values can stand only once. “Also recorded” adds a separate entry of the source."}
{"compound": "Nc1nc(O)c2ncn(COC(CO)CO)c2n1", "note": "[ganciclovir]", "values": [{"measurement": "Tumors responded to ganciclovir", "setting": "[1]; NCCIT(pSuicide)-derived tumors, ganciclovir 50 mg/kg intraperitoneally daily", "result": "4/4"}, {"measurement": "tumor growth", "setting": "[1]; tumors from NCCIT (pSuicide) cells, ganciclovir 50 mg/kg i.p. daily for two weeks", "result": "stopped growing; also recorded: inhibited growth"}, {"measurement": "tumor growth", "setting": "[1]; two mice with tumors from differentiated NCCIT (pSuicide) cells treated with ganciclovir", "result": "inhibited"}, {"measurement": "Tumors responded to ganciclovir", "setting": "[2]; NCCIT-derived tumors, ganciclovir 50 mg/kg intraperitoneally daily", "result": "0/7"}, {"measurement": "tumor growth", "setting": "[2]; tumors from NCCIT cells, ganciclovir 50 mg/kg i.p. daily for two weeks", "result": "continued to grow and not"}, {"measurement": "cell killing", "setting": "[3]; [12]", "result": "killed"}, {"measurement": "proliferation", "setting": "[3]; ganciclovir treatment", "result": "affected"}, {"measurement": "percentage of OCT4A-positive cells", "setting": "[4]; RA-treated NCCIT (pSuicide) cells after ganciclovir treatment", "result": "2.27%±0.12%"}, {"measurement": "percentage of OCT4A-positive cells", "setting": "[5]; RA-treated NCCIT cells after ganciclovir treatment", "result": "30.18%±2.46%"}, {"measurement": "cell killing", "setting": "[6]; [12]", "result": "not"}, {"measurement": "proliferation", "setting": "[6]; ganciclovir treatment", "result": "not affected and not"}, {"measurement": "mice that developed tumors of mice injected with ganciclovir-treated cells", "setting": "[7]; cells treated with ganciclovir for 14 days before injection, 3 months after injection", "result": "1 of 12 and 1/14"}, {"measurement": "OCT4A expression", "setting": "[8]", "result": "undetectable"}, {"measurement": "OCT4A expression", "setting": "[9]", "result": "did not reduce"}, {"measurement": "elimination of OCT4A-positive cells", "setting": "[10]; 2 μmol/L ganciclovir for 7 days after 10 days RA", "result": "did not eliminate"}, {"measurement": "elimination of OCT4A-positive cells", "setting": "[11]; 2 μmol/L ganciclovir for 7 days after 10 days RA, NCCIT (pSuicide) cells", "result": "eliminated"}, {"measurement": "cells with nuclear staining of OCT4A antibody", "setting": "[11]; 1670 immunostained ganciclovir-treated NCCIT (pSuicide) cells examined", "result": "none"}]}
{"compound": "CC1=C(/C=C/C(C)=C/C=C/C(C)=C/C(=O)O)C(C)(C)CCC1", "note": "[RA, retinoic acid]", "values": [{"measurement": "percentage of OCT4A-positive cells", "setting": "[4]; RA-treated NCCIT (pSuicide) cells before ganciclovir treatment", "result": "59.10%±0.5%"}, {"measurement": "OCT4A-positive cells", "setting": "[4]; after RA induction, NCCIT (pSuicide) cells", "result": "40-60%"}, {"measurement": "OCT4A-positive cells", "setting": "[5]; after RA induction, NCCIT cells", "result": "40-60%"}, {"measurement": "No. mice with tumor 0-3 Months postinjection", "setting": "[7]; [13]", "result": 6}, {"measurement": "No. mice with tumor 3-5 Months postinjection", "setting": "[7]; [13]", "result": 1}, {"measurement": "No. mice with tumor Total", "setting": "[7]; [13]", "result": 7}, {"measurement": "cells induced to differentiate (OCT4A-negative)", "setting": "[10]; 20 μmol/L retinoic acid", "result": "about 50%"}, {"measurement": "cells induced to differentiate (OCT4A-negative)", "setting": "[11]; 20 μmol/L retinoic acid, NCCIT (pSuicide) cells", "result": "about 50%"}]}
